The record followed here is patent US20260124222A1, “ISOTHIAZOLYLCARBOXAMIDE COMPOUNDS AND THEIR USE IN THERAPY” (HOTSPOT THERAPEUTICS, INC., priority 2022, published 2026).

The term IC50 denotes the concentration at which inhibition is half-maximal. Low values mean greater potency in that assay, high ones weaker potency in that assay.

In the assay the target is T1, Avi-tagged FL MALT-1 (Homo sapiens, UniProt Q9UDY8).
T1 construct: Avi-tagged FL MALT-1 (Pharmaron, stored at −70° C.); Avi-tag; purchased Pharmaron
T1 sequence (Q9UDY8 1-824): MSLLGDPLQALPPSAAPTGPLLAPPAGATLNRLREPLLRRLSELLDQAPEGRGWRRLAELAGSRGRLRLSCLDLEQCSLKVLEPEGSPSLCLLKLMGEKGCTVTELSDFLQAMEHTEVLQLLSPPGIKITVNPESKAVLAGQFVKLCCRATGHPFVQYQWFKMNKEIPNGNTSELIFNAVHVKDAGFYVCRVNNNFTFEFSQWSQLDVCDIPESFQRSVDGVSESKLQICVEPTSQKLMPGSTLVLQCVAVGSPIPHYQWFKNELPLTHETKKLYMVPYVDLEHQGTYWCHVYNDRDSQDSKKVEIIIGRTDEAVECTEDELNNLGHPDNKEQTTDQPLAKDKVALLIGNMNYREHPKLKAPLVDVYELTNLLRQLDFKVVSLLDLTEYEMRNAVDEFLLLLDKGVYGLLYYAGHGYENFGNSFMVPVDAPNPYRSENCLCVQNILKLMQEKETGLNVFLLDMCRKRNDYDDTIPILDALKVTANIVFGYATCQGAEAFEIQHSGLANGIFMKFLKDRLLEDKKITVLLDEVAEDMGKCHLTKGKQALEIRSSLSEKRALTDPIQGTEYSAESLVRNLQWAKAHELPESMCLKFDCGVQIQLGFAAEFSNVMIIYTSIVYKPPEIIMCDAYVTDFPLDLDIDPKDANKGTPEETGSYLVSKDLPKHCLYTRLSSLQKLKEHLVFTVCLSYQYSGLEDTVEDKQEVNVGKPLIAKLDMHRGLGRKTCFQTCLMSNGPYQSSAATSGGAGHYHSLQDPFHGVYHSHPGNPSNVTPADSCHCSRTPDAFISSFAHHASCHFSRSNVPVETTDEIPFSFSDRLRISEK
The experiment in a line: MALT-1 Fluorogenic Peptide Cleavage Assay (MALT1 inhibition assay). Format: biochemical. Particulars: Ac-LRSR-AMC peptide substrate; 30 min pre-incubation, 90 min reaction at room temperature; fluorescence. Here is the method: Inhibition of MALT1 activity by a small molecule was evaluated using MALT-1 Fluorogenic Peptide Cleavage Assay. The assay utilizes a quenched AMC-labelled peptide that contains the MALT-1 recognition sequence and cleavage site (LRSR). MALT-1 mediated cleavage of the peptide relieves the quenching and leads to an increase in fluorescence at excitation (342 nm) and emission (441 nm).
The following reagents were obtained commercially and used to prepare standard reagent formulations as further described below: N-2-hydroxyethylpiperazine-N-2-ethane sulfonic acid (HEPES) (1 M, pH 7.5, stored at 4° C.), sodium citrate (stored at RT), tris(2-carboxyethyl)phosphine hydrochloride (T-CEP) (500 mM, stored at −20° C.), ethylenediaminetetraacetic acid (EDTA) (500 mM, stored at RT), dimethylsulfoxide (DMSO, stored at RT), 3-[(3-cholamidopropyl)dimethylammonio]-1-propane sulphate (CHAPS) (stored at RT), dimethylsulfoxide (DMSO), DMSO (Fisher Scientific, stored at RT), Avi-tagged FL MALT-1 (Pharmaron, stored at −70° C.), Ac-LRSR-AMC Peptide (SM Biochemicals, stored at −20° C.), and ultrapure water (MILLI-Q®).
The standard reagent formulations used in this assay were prepared and stored as follows. A 1.1 M solution of sodium citrate (161.3 g, 500 mL) was prepared and stored at room temperature. A 10% (w/v) CHAPS solution (2.0 g, 20 mL) was prepared and stored at 4° C. A 500 mM HEPES solution having pH of 6.89 was prepared from 200 mL of a 1 M HEPES solution having a pH of 7.5 using concentrated hydrochloric acid and brought to a final volume of 400 mL with MILLI-Q© H2O. The substrate, 10 mM Ac-LRSR-AMC Peptide, was prepared (10 mg, 1.370 mL DMSO) and stored at −20° C.
Compounds were plated to provide a 2% DMSO final concentration using a ProxiPlate-384 Plus F Black 384-shallow well microplate. The assay-ready plates were equilibrated to room temperature. A reaction buffer (30 mL total volume) was prepared by combining HEPES (pH 6.89, 25 mM, 1.5 mL), sodium citrate (660 mM, 18.0 mL), T-CEP (1 mM, 0.06 mL), EDTA (0.1 mM, 0.06 mL), CHAPS (0.05%, 0.15 mL), DMSO (2%, 0.6 mL), and MILLI-Q® H2O (10.23 mL; 9.63 mL when backfilled to 2% DMSO) followed by thorough mixing.
MALT-1 was thawed and kept on ice. Peptide substrate was thawed on the bench under ambient conditions. A MALT-1 enzyme working stock was prepared from Avi-tagged FL MALT-1 (40 nM in a prepared reagent volume of […]) and the reaction buffer (13.0 mL). MALT1 working stock (5 μL) was added to each well of the microplate. MALT-1 was pre-incubated with compounds for 30 minutes at room temperature.
Two substrate working stocks (Km and 10×Km) were prepared. The 1×Km substrate was prepared from Ac-LRSR-AMC Peptide (50 μM in a prepared reagent volume of […]) and the reaction buffer (6.965 mL). The 10×Km substrate was prepared from Ac-LRSR-AMC Peptide ([…] in a prepared reagent volume of 196.0 μL) and the reaction buffer (6.804 mL). The reaction was initiated by the addition of substrate working stock (5 μL, 50 μM) to Km plates and the addition of substrate working stock (5 μL 280 μM) to 10×Km plates. The plates were covered and incubated on the bench at room temperature for 90 minutes.
Fluorescence intensity was determined using a CLARIOstar microplate reader (BMG LABTECH) using the optimised AMC mode. Before taking readings, a 70% gain was applied on the neutral control well. Compound data were normalised to % Inhibition and used to plot sigmoidal concentration response curves to yield various parameters including IC50.

Molecules are shown by their SMILES.

Consider `COc1ncc(NC(=O)c2snc(-c3ccccc3)c2C2CC2)cc1Cl` [I-40, N-(5-CHLORO-6-METHOXYPYRIDIN-3-YL)-4-CYCLOPROPYL-3-PHENYLISOTHIAZOLE-5-CARBOXAMIDE], for which the IC50 is not above 400 nM.

`Cc1cc(NC(=O)c2snc(-c3ccccc3)c2C2CC2)cn(C)c1=O` [I-41] registered an IC50 of more than 2500 nM.

On to `O=C(Nc1cncc(Cl)c1)c1snc(-c2ccccc2)c1C1CC1` [I-42, N-(5-CHLOROPYRIDIN-3-YL)-4-CYCLOPROPYL-3-PHENYLISOTHIAZOLE-5-CARBOXAMIDE], for which the 50% inhibitory concentration (IC50) was not above 400 nM.

For `O=C(Nc1cncc(F)c1)c1snc(-c2ccccc2)c1C1CC1` [I-43, 4-CYCLOPROPYL-N-(5-FLUOROPYRIDIN-3-YL)-3-PHENYLISOTHIAZOLE-5-CARBOXAMIDE], the concentration for half-maximal inhibition (IC50) is more than 2500 nM.

Turning to `COc1cncc(NC(=O)c2snc(-c3ccccc3)c2C2CC2)c1` [I-44, 4-CYCLOPROPYL-N-(5-METHOXYPYRIDIN-3-YL)-3-PHENYLISOTHIAZOLE-5-CARBOXAMIDE], the IC50 is more than 2500 nM.

In the case of `Cc1cncc(NC(=O)c2snc(-c3ccccc3)c2C2CC2)c1` [I-45, 4-CYCLOPROPYL-N-(5-METHYLPYRIDIN-3-YL)-3-PHENYLISOTHIAZOLE-5-CARBOXAMIDE], the 50% inhibitory concentration (IC50) fell in the range of 1000 to 2500 nM.

The compound `CN(C)c1ccc(NC(=O)c2snc(-c3ccccc3)c2C2CC2)cn1` [I-46, 4-CYCLOPROPYL-N-(6-(DIMETHYLAMINO) PYRIDIN-3-YL)-3-PHENYLISOTHIAZOLE-5-CARBOXAMIDE] had an IC50 of more than 2500 nM.

Compound `Cn1ncc2cc(NC(=O)c3snc(-c4ccccc4)c3C3CC3)cnc21` [I-47, 4-CYCLOPROPYL-N-(1-METHYL-1H-PYRAZOLO [3,4-B]PYRIDIN-5-YL)-3-PHENYLISOTHIAZOLE-5-CARBOXAMIDE] displayed an IC50 of 400 to 1000 nM.

Regarding `Cc1cc(NC(=O)c2snc(-c3ccccc3)c2C2CC2)cnc1-n1ccnn1` [I-48, 4-CYCLOPROPYL-N-(5-METHYL-6-(1H-1,2,3-TRIAZOL-1-YL)PYRIDIN-3-YL)-3-PHENYLISOTHIAZOLE-5-CARBOXAMIDE], the half-inhibitory concentration (IC50) was not above 400 nM.

On to `O=C(Nc1ccc(C(=O)N2CC(O)C2)c(Cl)c1)c1snc(-c2ncccc2Cl)c1C1CC1` [I-49, N-(3-CHLORO-4-(3-HYDROXYAZETIDINE-1-CARBONYL)PHENYL)-3-(3-CHLOROPYRIDIN-2-YL)-4-CYCLOPROPYL-ISOTHIAZOLE-5-CARBOXAMIDE], for which the IC50 lay within 1000 to 2500 nM.

The compound `CN(C)C(=O)c1ncc(NC(=O)c2snc(-c3ccccc3)c2C2CC2)cc1Cl` [I-50, N-(5-CHLORO-6-(DIMETHYLCARBAMOYL) PYRIDIN-3-YL)-4-CYCLOPROPYL-3-PHENYLISOTHIAZOLE-5-CARBOXAMIDE] registered an IC50 not above 400 nM.

The compound `CC(=O)N(C)c1ncc(NC(=O)c2snc(-c3ccccc3)c2C2CC2)cc1C#N` [I-51, N-(5-CYANO-6-(N-METHYLACETAMIDO) PYRIDIN-3-YL)-4-CYCLOPROPYL-3-PHENYLISOTHIAZOLE-5-CARBOXAMIDE] displayed an IC50 not above 400 nM.

In the case of `N#Cc1cc(NC(=O)c2snc(O)c2C2CC2)cnc1-n1nccn1` [I-52, N-(5-CYANO-6-(2H-1,2,3-TRIAZOL-2-YL) PYRIDIN-3-YL)-4-CYCLOPROPYL-3-HYDROXYISOTHIAZOLE-5-CARBOXAMIDE], the 50% inhibitory concentration (IC50) was more than 2500 nM.

Take `N#Cc1cc(NC(=O)c2snc(-c3ccccc3)c2C2CC2)cnc1N1CCOCC1` [I-53, N-(5-CYANO-6-MORPHOLINOPYRIDIN-3-YL)-4-CYCLOPROPYL-3-PHENYLISOTHIAZOLE-5-CARBOXAMIDE]: the IC50 is not above 400 nM.

For the compound `CN1CCN(c2ncc(NC(=O)c3snc(-c4ccccc4)c3C3CC3)cc2C#N)CC1` [I-54, N-(5-CYANO-6-(4-METHYLPIPERAZIN-1-YL) PYRIDIN-3-YL)-4-CYCLOPROPYL-3-PHENYLISOTHIAZOLE-5-CARBOXAMIDE], the half-maximal inhibitory concentration (IC50) is not above 400 nM.

In the case of `CN(C)C(=O)c1ccc(NC(=O)c2snc(-c3ccccc3)c2C2CC2)cc1C(F)(F)F` [I-55, 4-CYCLOPROPYL-N-(4-(DIMETHYL-CARBAMOYL)-3-(TRIFLUOROMETHYL) PHENYL)-3-PHENYLISOTHIAZOLE-5-CARBOXAMIDE], the IC50 was not above 400 nM.

On to `CC(C)c1nsc(C(=O)Nc2cnc(-n3nccn3)c(C#N)c2)c1C1CC1` [I-56, N-(5-CYANO-6-(2H-1,2,3-TRIAZOL-2-YL) PYRIDIN-3-YL)-4-CYCLOPROPYL-3-ISOPROPYLISOTHIAZOLE-5-CARBOXAMIDE], for which the half-inhibitory concentration (IC50) is not above 400 nM.

`O=C(Nc1cnc(-n2nccn2)c(Cl)c1)c1nsc(-c2ccccc2)c1C(F)(F)F` [I-57, N-(5-CHLORO-6-(2H-1,2,3-TRIAZOL-2-YL) PYRIDIN-3-YL)-5-PHENYL-4-(TRIFLUOROMETHYL)ISOTHIAZOLE-3-CARBOXAMIDE] yielded a half-maximal inhibitory concentration (IC50) not above 400 nM.

On to `O=C(Nc1cnc(C(=O)N2CC(O)C2)c(Cl)c1)c1snc(-c2ccccc2)c1C1CC1` [I-58, N-(5-CHLORO-6-(3-HYDROXYAZETIDINE-1-CARBONYL)PYRIDIN-3-YL)-4-CYCLOPROPYL-3-PHENYLISOTHIAZOLE-5-CARBOXAMIDE], for which the half-inhibitory concentration (IC50) is not above 400 nM.

Compound `O=C(Nc1ccc(C(=O)N2CC(O)C2)nc1)c1snc(-c2ccccc2)c1C1CC1` [I-59, 4-CYCLOPROPYL-N-(6-(3-HYDROXY-AZETIDINE-1-CARBONYL)PYRIDIN-3-YL)-3-PHENYLISOTHIAZOLE-5-CARBOXAMIDE] gave an IC50 of more than 2500 nM.

Turning to `CC(C)c1nsc(C(=O)Nc2cnc(-n3nccn3)c(Cl)c2)c1C1CC1` [I-60, N-(5-CHLORO-6-(2H-1,2,3-TRIAZOL-2-YL) PYRIDIN-3-YL)-4-CYCLOPROPYL-3-ISOPROPYLISOTHIAZOLE-5-CARBOXAMIDE], the IC50 was not above 400 nM.

As to `N#Cc1cc(NC(=O)c2snc(-c3ccccc3)c2C2(O)COC2)cnc1-n1nccn1` [I-61], the IC50 is more than 2500 nM.

Consider `CN1Cc2cc(NC(=O)c3snc(-c4ccccc4)c3C3CC3)ccc2C1=O` [I-62, 4-CYCLOPROPYL-N-(2-METHYL-1-OXOISOINDOLIN-5-YL)-3-PHENYLISOTHIAZOLE-5-CARBOXAMIDE], for which the IC50 is more than 2500 nM.

For the compound `Cn1ccc2cc(NC(=O)c3snc(-c4ccccc4)c3C3CC3)ccc2c1=O` [I-98], the IC50 was more than 2500 nM.

Consider `O=C(Nc1cnc(-n2nccn2)c(Cl)c1)c1snc(-c2cccc3[nH]c(=O)ccc23)c1C(F)(F)F` [I-99], for which the IC50 is not above 400 nM.

For `N#Cc1cc(NC(=O)c2snc(-c3cccc4ncsc34)c2C2CC2)cnc1-n1nccn1` [I-100], the IC50 was not above 400 nM.
